Assay results as given in patent US8937091B2 (Japan Science and Technology Agency, priority 2009, dated 2015).

What was measured:
[1] = test system: SOCE (store operated calcium entry) in CHO cells; experiment: Assay of SOCE (store operated calcium entry)-inhibiting action; format: cell-based, Chinese hamster; conditions: for inhibition at 10 µM / inhibition at 30 µM / inhibition at 100 µM / SOCE level (percentage of inhibition): CHO cells, thapsigargin; for inhibition at 10 µM / inhibition at 30 µM / inhibition at 100 µM: read-out: SOCE level (percentage of inhibition)
Summary of the method: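 CHO cells in calcium-free BSS received compound, then 1 μM thapsigargin 2 min later to deplete stores; after 9 min, 2 mM calcium chloride (final) added. Percent inhibition of the rise in intracellular calcium determined at various compound concentrations.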

[2] = test system: IICR (IP3 induced calcium release) in CHO cells; experiment: Assay of IICR (IP3 induced calcium release)-inhibiting action; format: cell-based, Chinese hamster; conditions: for inhibition at 10 µM / inhibition at 30 µM / inhibition at 100 µM / IICR level (percentage of inhibition): CHO cells, 10 μM ATP; for inhibition at 10 µM / inhibition at 30 µM / inhibition at 100 µM: read-out: IICR level (percentage of inhibition)
Summary of the method: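 Inhibition (%) of the intracellular calcium increase triggered by 10 μM ATP, measured in CHO cells in BSS with calcium. Compound given 1 min after the buffer exchange and 2 min before ATP; values reported per compound concentration.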

[3] = Cricetulus griseus, CHO, test compound 10 μmol
[4] = Cricetulus griseus, CHO, test compound 30 μmol
[5] = Cricetulus griseus, CHO, test compound 100 μmol
[6] = Cricetulus griseus, CHO, Table 1

Row | Compound | inhibition at 10 µM [1, 3] | inhibition at 30 µM [1, 4] | inhibition at 100 µM [1, 5] | inhibition at 10 µM [2, 3] | inhibition at 30 µM [2, 4] | inhibition at 100 µM [2, 5] | SOCE level (percentage of inhibition) ([1]; test compound 10 μmol) | SOCE level (percentage of inhibition) ([1]; test compound 30 μmol) | SOCE level (percentage of inhibition) ([1]; test compound 100 μmol) | IICR level (percentage of inhibition) ([2]; test compound 10 μmol) | IICR level (percentage of inhibition) ([2]; test compound 30 μmol) | IICR level (percentage of inhibition) ([2]; test compound 100 μmol) | IC50 [1, 6] | IC50 [2, 6]
1 | CN(CCO)CCC(=O)c1ccc2ccccc2c1 [Example 100, 2-(N-methylhydroxyethyl)aminoethyl-2-naphthylketone] | 0% | 0% | 20% | 0% | 0% | 60% |  |  |  |  |  |  |  | 
2 | O=C(CCN1CCCC1O)c1ccc(Br)s1 (stereo not drawn) [Example 345, 2-(N-2-hydroxypyrrolidino)aminoethyl-5-bromo-2-thienylketone] | 0% | 0% | 10% | 0% | 20% | 70% |  |  |  |  |  |  |  | 
3 | O=C(CCN(CCO)CCO)c1ccc(Br)s1 [Example 330, 2-(N-bishydroxyethyl)aminoethyl-5-bromo-2-thienylketone] | 10% | 10% | 20% | 30% | 40% | 50% |  |  |  |  |  |  |  | 
4 | CC(C)N(CCC(=O)c1ccncc1)C(C)C [Example 397, 2-diisopropylaminoethyl-4-pyridylketone] | 20% | 40% | 50% | 0% | 0% | 10% |  |  |  |  |  |  |  | 
5 | N#Cc1ccc(C(=O)CCNCCSSCCNCCC(=O)c2ccc(C#N)cc2)cc1 [Example 398] | 20% | 40% | 50% | 1% | 44% | 80% |  |  |  |  |  |  |  | 
6 | CN(CCC(=O)c1ccccn1)Cc1ccccc1 [Example 77, 2-(N-methylbenzyl)aminoethyl-2-pyridylketone] | 0% | 20% | 30% | 0% | 10% | 30% |  |  |  |  |  |  |  | 
7 | CC(C)N(CCC(=O)c1ccc(Cc2ccccc2)cc1)Cc1ccccc1 [Example 103, 2-(N-isopropylbenzyl)aminoethyl-4-benzylphenylketone] |  |  |  |  |  |  | 10% | 50% | 60% | 80% | 80% | 100% |  | 
8 | O=C(CCNCCc1ccccc1)c1ccco1 [Example 300, 2-(N-phenethyl)aminoethyl-2-furylketone] |  | 20% | 40% | 30% | 0% | 10% |  |  |  |  |  |  |  | 
9 | CC(C)CN(CCC(=O)c1ccc(Br)s1)CC(C)C [Example 384, 2-(N,N-diisobutyl)aminoethyl-5-bromo-2-thienylketone] | 0% | 10% | 100% | 0% | 35% | 70% |  |  |  |  |  |  |  | 
10 | COC(=O)C(CSSCC(NCCC(=O)c1ccco1)C(=O)OC)NCCC(=O)c1ccco1 (stereo not drawn) [Example 401, N,N-bis(2-furoylethyl)cystinemethylester] | 20% | 40% | 50% | 31% | 1% | 57% |  |  |  |  |  |  |  | 
11 | CN(CCC(=O)c1ccncc1)Cc1ccccc1 [Example 31, 2-(N-methylbenzyl)aminoethyl-4-pyridylketone] | 0% | 0% | 0% | 40% | 60% | 80% |  |  |  |  |  |  |  | 
12 | CC(C)N(CCC(=O)n1ccnc1)Cc1ccccc1 [Example 224, 2-(N-isopropylbenzyl)aminoethyl-1-imidazolylketone] | 0% | 0% | 20% | 20% | 20% | 0% |  |  |  |  |  |  |  | 
13 | CCCCN(CCO)CCC(=O)c1nc(C)cs1 [Example 264, 2-(N-butyl-2-hydroxyethyl)aminoethyl-4-methyl-2-thiazolylketone] | 0% | 0% | 10% | 0% | 0% | 70% |  |  |  |  |  |  |  | 
14 | O=C(CCN1CCN(C(=O)c2ccco2)CC1)c1ccc(Oc2ccccc2)cc1 [Example 115, 2-(N-furoylpiperazyl)aminoethyl-4-phenoxyphenylketone] | 0% | 0% | 30% | 20% | 20% | 20% |  |  |  |  |  |  |  | 
15 | CC(C)N(CCC(=O)c1cc(Cl)sc1Cl)Cc1ccccc1 [Example 202, 2-(N-isopropylbenzyl)aminomethyl-3-(2,5-dichlorothiophenyl)ketone] | 0% | 20% | 50% | 50% | 80% | 100% |  |  |  |  |  |  |  | 
16 | CC(C)N(CCO)CCC(=O)c1ccc2ccccc2c1 [Example 205, 2-(N-hydroxyethylisopropyl)aminoethyl-2-naphthylketone] | 0% | 0% | 0% | 0% | 0% | 0% |  |  |  |  |  |  |  | 
17 | O=C(CCNC(CO)Cc1ccccc1)c1ccc(Br)s1 (stereo not drawn) [Example 357, 2-(N-hydroxy-1-benzylethyl)aminoethyl-5-bromo-2-thienylketone] | 0% | 9% | 47% | 0% | 0% | 70% |  |  |  |  |  |  |  | 
18 | CC(C)(C)N(CCC(=O)c1ccco1)Cc1ccccc1 [Example 121, 2-(N-t-butylbenzyl)aminoethyl-2-furylketone] | 0% | 0% | 0% | 10% | 50% | 100% |  |  |  |  |  |  | > 100 µM | 30 µM
19 | CC(C)(C)N(CCO)CCC(=O)c1cnccn1 [Example 214, 2-(N-2-hydroxyethyl-t-butyl)aminoethyl-2-pyrazylketone] | 10% | 0% | 0% | 0% | 0% | 0% |  |  |  |  |  |  |  | 
20 | CCCCN(CCO)CCC(=O)c1cccs1 [Example 247, 2-(N-butyl-2-hydroxyethyl)aminoethyl-2-thiophenylketone] | 0% | 0% | 0% | 10% | 0% | 0% |  |  |  |  |  |  |  | 
21 | CC(C)N(CCO)CCC(=O)c1ccccc1 [Example 312, 2-(N-hydroxyethylisopropyl)aminoethylphenylketone] | 0% | 0% | 10% | 20% | 20% | 80% |  |  |  |  |  |  |  | 
22 | Cc1ccc(C(=O)CCN(Cc2ccccc2)C(C)C)o1 [Example 136] | 0% | 0% | 20% | 50% | 60% | 80% |  |  |  |  |  |  |  | 
23 | CCCCN(CCO)CCC(=O)c1ccncc1 [Example 51, 2-(N-hydroxyethylbutyl)aminoethyl-4-pyridylketone] | 0% | 0% | 0% | 0% | 20% | 100% |  |  |  |  |  |  |  | 
24 | O=C(CCN(CCO)Cc1ccccc1)c1nccs1 [Example 290, 2-(N-2-hydroxyethylbenzyl)aminoethyl-2-thiazolylketone] |  | 0% | 0% | 40% | 60% | 90% |  |  |  |  |  |  |  | 
25 | CCCCN(CCO)CCC(=O)c1ccc(Oc2ccccc2)cc1 [Example 114, 2-(N-hydroxyethylbutyl)aminoethyl-4-phenoxyphenylketone] | 0% | 10% | 40% | 70% | 100% | 30% |  |  |  |  |  |  |  | 
26 | Cn1cccc1C(=O)CCN(CCO)Cc1ccccc1 [Example 164, 2-(N-benzyl-2-hydroxyethyl)aminoethyl-2-(N-methylpyrrolyl)ketone] | 0% | 0% | 10% | 0% | 0% | 40% |  |  |  |  |  |  |  | 
27 | Cc1ccc(C(=O)CCN(Cc2ccccc2)C(C)C)s1 [Example 318, 2-(N-benzylisopropyl)aminoethyl-5-methyl-2-thienylketone] | 10% | 20% | 40% | 10% | 60% | 80% |  |  |  |  |  |  |  | 
